Measurements published in the NIST ThermoML archive (doi:10.1016/j.jct.2017.01.016).

Experiment: xn = mol fraction of the nth substance listed
Conditions: 101 kPa, Liquid; for viscosity: Capillary tube (Ostwald / Ubbelohde) method; for speed of sound: Frequency=3 MHz, Linear variable-path acoustic interferometer

Cc1cccc(C)c1 [1,3-dimethylbenzene] + C1COCCO1
Conditions	speed of sound [m/s]	viscosity [mPa·s]
293.15 K, x2 = 0	1346.7	0.6184
293.15 K, x2 = 0.0938	1341.2	0.674
293.15 K, x2 = 0.1532	1338.2	0.7104
293.15 K, x2 = 0.2046	1335.9	0.7427
293.15 K, x2 = 0.2698	1333.4	0.7843
293.15 K, x2 = 0.3374	1331.4	0.8284
293.15 K, x2 = 0.4002	1330.1	0.8702
293.15 K, x2 = 0.4714	1329.3	0.9186
293.15 K, x2 = 0.5487	1329.6	0.9721
293.15 K, x2 = 0.63	1331.2	1.03
293.15 K, x2 = 0.7182	1335	1.093
293.15 K, x2 = 0.8035	1341	1.156
293.15 K, x2 = 0.8708	1347.8	1.207
293.15 K, x2 = 0.9324	1355.8	1.254
298.15 K, x2 = 0	1323.6	0.584
298.15 K, x2 = 0.0938	1318.3	0.633
298.15 K, x2 = 0.1532	1315.4	0.6651
298.15 K, x2 = 0.2046	1313.2	0.6934
298.15 K, x2 = 0.2698	1310.8	0.7303
298.15 K, x2 = 0.3374	1308.8	0.7694
298.15 K, x2 = 0.4002	1307.6	0.8064
298.15 K, x2 = 0.4714	1307	0.8493
298.15 K, x2 = 0.5487	1307.3	0.8968
298.15 K, x2 = 0.63	1309.1	0.948
298.15 K, x2 = 0.7182	1312.9	1.005
298.15 K, x2 = 0.8035	1318.8	1.061
298.15 K, x2 = 0.8708	1325.5	1.106
298.15 K, x2 = 0.9324	1333.5	1.148
303.15 K, x2 = 0	1302.4	0.5517
303.15 K, x2 = 0.0938	1297.2	0.5953
303.15 K, x2 = 0.1532	1294.4	0.6236
303.15 K, x2 = 0.2046	1292.2	0.6487
303.15 K, x2 = 0.2698	1289.8	0.6811
303.15 K, x2 = 0.3374	1287.9	0.7159
303.15 K, x2 = 0.4002	1286.6	0.7488
303.15 K, x2 = 0.4714	1286	0.787
303.15 K, x2 = 0.5487	1286.3	0.8293
303.15 K, x2 = 0.63	1288.1	0.875
303.15 K, x2 = 0.7182	1291.9	0.9258
303.15 K, x2 = 0.8035	1297.7	0.976
303.15 K, x2 = 0.8708	1304.4	1.016
303.15 K, x2 = 0.9324	1312.2	1.054
308.15 K, x2 = 0	1282.3	0.5229
308.15 K, x2 = 0.0938	1277.1	0.5621
308.15 K, x2 = 0.1532	1274.3	0.5875
308.15 K, x2 = 0.2046	1272.1	0.6101
308.15 K, x2 = 0.2698	1269.7	0.6392
308.15 K, x2 = 0.3374	1267.8	0.6706
308.15 K, x2 = 0.4002	1266.5	0.7002
308.15 K, x2 = 0.4714	1265.8	0.7347
308.15 K, x2 = 0.5487	1266	0.773
308.15 K, x2 = 0.63	1267.7	0.8144
308.15 K, x2 = 0.7182	1271.2	0.8604
308.15 K, x2 = 0.8035	1276.9	0.9061
308.15 K, x2 = 0.8708	1283.2	0.943
308.15 K, x2 = 0.9324	1290.7	0.9769
313.15 K, x2 = 0	1262.3	0.4938
313.15 K, x2 = 0.0938	1257.2	0.5297
313.15 K, x2 = 0.1532	1254.3	0.553
313.15 K, x2 = 0.2046	1252.2	0.5737
313.15 K, x2 = 0.2698	1249.8	0.6005
313.15 K, x2 = 0.3374	1247.9	0.6291
313.15 K, x2 = 0.4002	1246.6	0.6563
313.15 K, x2 = 0.4714	1245.8	0.688
313.15 K, x2 = 0.5487	1246	0.7231
313.15 K, x2 = 0.63	1247.5	0.7611
313.15 K, x2 = 0.7182	1250.9	0.8034
313.15 K, x2 = 0.8035	1256.4	0.8453
313.15 K, x2 = 0.8708	1262.4	0.8793
313.15 K, x2 = 0.9324	1269.6	0.9105
318.15 K, x2 = 0	1243	0.468
318.15 K, x2 = 0.0938	1237.9	0.501
318.15 K, x2 = 0.1532	1235.1	0.5226
318.15 K, x2 = 0.2046	1232.9	0.5416
318.15 K, x2 = 0.2698	1230.5	0.5665
318.15 K, x2 = 0.3374	1228.5	0.5928
318.15 K, x2 = 0.4002	1227.2	0.6178
318.15 K, x2 = 0.4714	1226.4	0.647
318.15 K, x2 = 0.5487	1226.5	0.6794
318.15 K, x2 = 0.63	1227.9	0.7144
318.15 K, x2 = 0.7182	1231.1	0.7535
318.15 K, x2 = 0.8035	1236.2	0.7922
318.15 K, x2 = 0.8708	1242	0.8232
318.15 K, x2 = 0.9324	1248.9	0.852

Cc1ccc(C)cc1 [1,4-dimethylbenzene] + C1COCCO1
Conditions	speed of sound [m/s]	viscosity [mPa·s]
293.15 K, x2 = 0	1328.4	0.6505
293.15 K, x2 = 0.0716	1326.1	0.6921
293.15 K, x2 = 0.1445	1324.1	0.7358
293.15 K, x2 = 0.2132	1322.7	0.7779
293.15 K, x2 = 0.2871	1321.7	0.8239
293.15 K, x2 = 0.3582	1321.3	0.8691
293.15 K, x2 = 0.4358	1321.6	0.9192
293.15 K, x2 = 0.5042	1322.7	0.964
293.15 K, x2 = 0.5846	1325	1.018
293.15 K, x2 = 0.6543	1328.1	1.065
293.15 K, x2 = 0.7249	1332.5	1.113
293.15 K, x2 = 0.7923	1338.1	1.159
293.15 K, x2 = 0.8623	1345.6	1.208
293.15 K, x2 = 0.9311	1355.2	1.257
298.15 K, x2 = 0	1307.4	0.6115
298.15 K, x2 = 0.0716	1305.1	0.6484
298.15 K, x2 = 0.1445	1303.2	0.6871
298.15 K, x2 = 0.2132	1301.9	0.7245
298.15 K, x2 = 0.2871	1300.9	0.7654
298.15 K, x2 = 0.3582	1300.5	0.8054
298.15 K, x2 = 0.4358	1300.8	0.8499
298.15 K, x2 = 0.5042	1301.8	0.8898
298.15 K, x2 = 0.5846	1304	0.9374
298.15 K, x2 = 0.6543	1307	0.9792
298.15 K, x2 = 0.7249	1311.2	1.022
298.15 K, x2 = 0.7923	1316.6	1.064
298.15 K, x2 = 0.8623	1323.9	1.107
298.15 K, x2 = 0.9311	1333.1	1.151
303.15 K, x2 = 0	1287.3	0.5766
303.15 K, x2 = 0.0716	1285.1	0.6095
303.15 K, x2 = 0.1445	1283.2	0.644
303.15 K, x2 = 0.2132	1281.9	0.677
303.15 K, x2 = 0.2871	1280.9	0.7133
303.15 K, x2 = 0.3582	1280.5	0.7488
303.15 K, x2 = 0.4358	1280.8	0.7884
303.15 K, x2 = 0.5042	1281.8	0.8239
303.15 K, x2 = 0.5846	1283.9	0.8663
303.15 K, x2 = 0.6543	1286.8	0.9037
303.15 K, x2 = 0.7249	1290.8	0.9422
303.15 K, x2 = 0.7923	1296	0.9792
303.15 K, x2 = 0.8623	1303	1.018
303.15 K, x2 = 0.9311	1311.9	1.057
308.15 K, x2 = 0	1267.6	0.544
308.15 K, x2 = 0.0716	1265.4	0.5737
308.15 K, x2 = 0.1445	1263.6	0.605
308.15 K, x2 = 0.2132	1262.2	0.635
308.15 K, x2 = 0.2871	1261.2	0.6677
308.15 K, x2 = 0.3582	1260.8	0.6999
308.15 K, x2 = 0.4358	1261	0.7358
308.15 K, x2 = 0.5042	1261.8	0.768
308.15 K, x2 = 0.5846	1263.8	0.8064
308.15 K, x2 = 0.6543	1266.5	0.8403
308.15 K, x2 = 0.7249	1270.4	0.875
308.15 K, x2 = 0.7923	1275.4	0.9086
308.15 K, x2 = 0.8623	1282	0.9441
308.15 K, x2 = 0.9311	1290.5	0.9791
313.15 K, x2 = 0	1248.3	0.5132
313.15 K, x2 = 0.0716	1246.2	0.5407
313.15 K, x2 = 0.1445	1244.3	0.5693
313.15 K, x2 = 0.2132	1242.9	0.5968
313.15 K, x2 = 0.2871	1241.9	0.6269
313.15 K, x2 = 0.3582	1241.4	0.6565
313.15 K, x2 = 0.4358	1241.6	0.6894
313.15 K, x2 = 0.5042	1242.3	0.7189
313.15 K, x2 = 0.5846	1244.1	0.7542
313.15 K, x2 = 0.6543	1246.7	0.7853
313.15 K, x2 = 0.7249	1250.3	0.8172
313.15 K, x2 = 0.7923	1255	0.8479
313.15 K, x2 = 0.8623	1261.4	0.8802
313.15 K, x2 = 0.9311	1269.5	0.9126
318.15 K, x2 = 0	1229.8	0.4862
318.15 K, x2 = 0.0716	1227.7	0.5116
318.15 K, x2 = 0.1445	1225.8	0.538
318.15 K, x2 = 0.2132	1224.4	0.5633
318.15 K, x2 = 0.2871	1223.3	0.5911
318.15 K, x2 = 0.3582	1222.8	0.6185
318.15 K, x2 = 0.4358	1222.8	0.6488
318.15 K, x2 = 0.5042	1223.4	0.676
318.15 K, x2 = 0.5846	1225	0.7084
318.15 K, x2 = 0.6543	1227.4	0.737
318.15 K, x2 = 0.7249	1230.8	0.7663
318.15 K, x2 = 0.7923	1235.2	0.7946
318.15 K, x2 = 0.8623	1241.3	0.8244
318.15 K, x2 = 0.9311	1248.9	0.854
